# How the values were obtained:
# [1] = system: rat cornea; details: topical application onto the rat cornea, cited from earlier work
# [2] = system: acute pain; details: 34 subjects
# Procedure: As indicated, 10 mL of venous blood was collected throughout the study period, at time intervals likely to capture peak and trough levels (Greenblatt D J et al. (1985). Arch Otolaryngol 111: 2988-3000); (Baumann L S, et al. (2010). J Drugs Dermatol 9: 1500-1504). Each subject provided self-rated pain evaluations at those same time intervals, focusing on pain at the identified site of acute pain and of drug application, using the 1-10 Visual Analog Scale (VAS) (Meier T, et al. (2003). Pain 106: 151-158).
# The central data used to describe efficacy was the 10-point VAS. While this measure is subjective, the study subjects were requested specifically to be consistent in their pain estimates.
# [3] = animal models, topical; cited from earlier work
molecule,measurement,setting,value
"O=C(O)CN(CCN(CC(=O)O)CC(=O)O)CC(=O)O [EDTA, ethylenediaminetetraacetic acid]","Ocular uptake of C14 EDTA, applied with MSM",[1]; with MSM,uptake of the C^14 EDTA in all tested ocular tissues
same,"Ocular penetration of EDTA, without MSM",[1]; without MSM,did not penetrate the eye
"CCN(CC)CC(=O)Nc1c(C)cccc1C [lidocaine, 2-(diethylamino)-N-(2,6-dimethylphenyl)acetamide]",Number of subjects with maximum pain relief at the 1 hour point,[2]; doses at 0 and 4 h,9 subjects
same,Subjects whose time elapsed to reach maximal pain reduction was 1 h,[2]; doses at 0 and 4 h,27%
same,Subjects whose time elapsed to reach maximal pain reduction was 3 h,[2]; doses at 0 and 4 h,21%
same,Subjects whose time elapsed to reach maximal pain reduction was 5 h,[2]; doses at 0 and 4 h,18%
same,Subjects whose time elapsed to reach maximal pain reduction was 7 h,[2]; doses at 0 and 4 h,9%
same,Subjects whose time elapsed to reach maximal pain reduction was 9 h,[2]; doses at 0 and 4 h,12%
same,Subjects whose time elapsed to reach maximal pain reduction was 11 h,[2]; doses at 0 and 4 h,6%
same,Number of subjects with pain relief at 50% or better,[2]; maximal pain reduction,28 of 34
same,Subjects with pain reduction of 50% or greater,[2]; maximal pain reduction,82%
methylsulfonylmethane [MSM],Toxicity when administered topically (in words),[3],very low toxicity
